Counter-ions that a name gives are not always drawn.
Key:
[1] = tested on: rat carrageenan paw edema; assay: Rat carrageenan paw edema; assay type: in vivo, rat (Sprague-Dawley); conditions: for ED50: Rattus norvegicus, po, 3 h, read-out: Oral ED50 (95% C.L.); for % Inhibition at 50 mg/kg (peroral): Table 5, 1 hour prior to carrageenan, edema at 3 hours
Method: The compounds in the scope of the invention are further tested in the rat carrageenan paw edema to determine their ability to inhibit the acute inflammatory response. This assay is carried out as follows: […] male Sprague-Dawley rats, in groups of 6 animals are injected subcutaneously in the right paw with 0.1 ml of 1% carrageenan at zero time. Mercury plethysmographic readings (ml) of the paw are made at zero times and 3 hours later. Test compounds are suspended or dissolved in 0.5% methylcellulose and given perorally 1 hour prior to carrageenan administration. The increase in paw volume (edema in ml.) produced by the carrageenan is measured. […] Unpaired Student's t-test is used to determine statistical significance.

[2] = molecular target: T1, human platelet PLA2 (Homo sapiens, UniProt P14555); assay: Inhibition of cell free human platelet PLA2 (hydrolysis of [3H]-AA labelled E. coli phospholipids); assay type: biochemical; conditions: Table 1; compounds of the invention; human platelet PLA2, pH 7.4, 37° C., 30 minutes
T1 sequence (P14555 21-144): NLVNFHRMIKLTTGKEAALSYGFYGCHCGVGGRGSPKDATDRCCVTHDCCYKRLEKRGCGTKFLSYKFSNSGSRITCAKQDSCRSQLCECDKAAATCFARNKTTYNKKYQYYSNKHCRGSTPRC
Method: The ability of the compounds of the invention to inhibit the activity of cell free human platelet PLA2 enzyme is measured in the following in vitro assay.
(§1) The assay is carried out as follows:
E. coli, cultured to exponential growth, are sedimented for 15 minutes at 10,000 g and resuspended in sterile isotonic saline (1-3 ml). 10-25 μCi uniformly labeled [^3 H]-arachidonic acid (AA) is added to a sterile flask, evaporated by N2 and resolubilized with 0.3 ml 20% fatty acid-free bovine serum albumen (BSA). 75-100 ml of nutrient broth and 1 ml E. coli are then added to each flask and incubated for 2-3 hours at 37° C. [^3 H]-AA labelled E. coli are then sedimented, suspended in saline and added to fresh nutrient broth and incubated for 1.5 hours at 37° C. to complete [^3 H]-AA incorporation into the phospholipids. After overnight refrigeration of cultures, E. coli are again sedimented, suspended in saline and autoclaved for 15 minutes at 120° C. E. coli cultures are washed twice with saline (first wash contains 1% BSA) and resuspended in saline. Non-labelled E. coli cultures are also prepared in the same manner. Cell number is determined by measuring the optical density at 550 nm ([…]=1 O.D.). The amount of radioactivity associated with cells is determined by counting a defined volume of cell suspension. The specific activity is subsequently adjusted by adding non-labelled E. coli to yield 10,000 cpm/10 […] of E. coli/25 ml.
Platelet PLA2 Preparation
Expired human platelets from the blood bank are centrifuged for 15 minutes at 200 g to obtain a platelet rich fraction and to remove the red blood cells. Platelets are sedimented for 15 minutes at 2500 g and the plasma is removed before adding cold 0.18N H2 SO4 (4ml/unit). Platelets are homogenized, incubated for 1 hour at 4° C., homogenized again and centrifuged for 15 minutes at 10,000 g. The PLA2 enriched supernatant fluid is removed and the amount of protein is determined by the Lowry method. The preparation is divided into various portions and stored at -20° C.
The assay measures the hydrolysis of E. coli membrane phospholipids via the release of free [^3 H]-AA from the C-2 position of phospholipids by human platelet PLA2. To ice cold 15×100 mm test tubes, the following additions are made; 2.5×10^8 E. coli (equivalent to 5 nmol phospholipid), 5 mM Ca^++, 100 mM Tris buffer (pH=7.4), 100 μg platelet extract (or an amount to produce 20-30% hydrolysis), drug or vehicle. Incubations are carried out at 37° C. in a shaking water bath for 30 minutes. The reaction is terminated by the addition of 2 volumes of tetrahydrofuran (THF) and the mixture is vortexed. Hydrolyzed [^3 H]-AA is separated from unhydrolyzed phospholipid by solid phase extraction using Bond elute NH2 columns (Analytichem Internat.). Columns are conditioned with 0.5 ml THF followed by 0.5 ml THF:H2 O (2.0:0.1 ml/v/v). Samples are loaded onto columns and hydrolyzed [^ 3 H]-AA is eluted with 1 ml THF:glacial acetic acid (98.0:2.0 ml v/v). The eluant is transferred to vials, 10 ml Optifluor is added and the radioactivity is determined by liquid scintillation counting.
Treatments are corrected for non-enzymatic hydrolysis by subtracting the dpms in treatments containing no enzyme Mean [^3 H]-AA dpm is determined and a percent inhibition relative to vehicle treated samples is calculated.
The percent hydrolysis is calculated by the following equation: [formula]

[3] = tested on: synthesis of TxB2 by rat glycogen-elicited polymorphonuclear leukocytes; assay: Inhibition of synthesis of the cyclooxygenase product TxB2 (procedure of Example 7); assay type: cell-based; conditions: Leukocyte, rat PMN, A23187 stimulated; for inhibition at 10 µM: Table 3, at 10 μM
Method: (§2) Rat polymorphonuclear leukocytes (PMNs) are obtained from female Wistar rats (150.200 g) which receive an injection of 6% glycogen (10 ml i.p.). Rats are sacrificed 18-24 hours post injection by CO2 asphyxiation and the elicited cells are harvested by peritoneal lavage using physiological saline (0.9% NaCl). The exudate is centrifuged at 400×g for 10 minutes. The supernatant fluid is discarded and the cell pellet is resuspended to a concentration of 2.0×10^7 cells/ml in HBSS containing Ca^++ and Mg^++ and 10 μM L-cysteine.
(§3) To 1 ml aliquots of cell suspension, test drugs or vehicle are added, then preincubated at 37° C. for 10 minutes. A23187 (1 μM), [^3 H]-AA (3.0 μCi/ml) and unlabeled AA (1 μM) are then added and the samples are further incubated for 10 minutes. The reaction is terminated by centrifugation and pelleting cells. Supernatants are then analyzed by HPLC analysis on a 15 cm×4.6 mm ID Supelcosil LC-18 (Supelco)(3M) column, using a two solvent system at a flow rate of 1.4 ml total flow as follows:
(§4) Injections: 150 μl of each supernatant is injected directly onto column and ^3 H arachidonic acid metabolites are monitored using an on-line radioactivity detector (Ramona, IN/US, Fairfield, NJ).
(§5) Results are expressed as percent inhibition at a given compound dose.
In this assay, the procedure of Example 7 is carried out as described. However, in order to determine cyclooxygenase activity, the samples are co-chromatographed with authentic reference [^3 H]-TxB2.
The results are calculated as in Example 7 and presented below: […]

[4] = tested on: synthesis of LTB4 by rat glycogen-elicited polymorphonuclear leukocytes (PMN); assay: Inhibition of LTB4 synthesis by rat glycogen-elicited polymorphonuclear leukocytes in the presence of exogenous substrate; assay type: cell-based; conditions: Leukocyte, A23187 stimulated; for inhibition at 10 µM: Table 2, at 10 μM
Excerpt: This is especially true with respect to 5,12-diHETE, which is also denoted as LTB4 [see Ford-Hitchinson, J. Roy. Soc. Med., 74, 831 (1981)]. Compounds which inhibit the PLA2 -mediated release of arachidonic acid thereby effectively prevent the oxidation of arachidonic acid to the various leukotriene products via the lipoxygenase cascade. Accordingly, the specificity of action of PLA2 inhibitors can be determined by the activity of test compounds in this assay, which measures the ability of compounds to inhibit the synthesis of LTB4 by rat glycogen-elicited polymorphonuclear leukocytes (PMN) in the presence of exogenous substrate.
as §1, §2, §3
Gradient: (system is equillibrated with Solvent A)
Percent solvent changes are accomplished in a linear fashion.
as §4
Standards: 10^4 -2.0×10^4 dpm of eicosanoids of interest are injected in 90 μl EtOH cocktail.
Co-chromatography with standard [^3 H] leukotriene B4 (LTB4) in medium of stimulated PMN exposed to drug is compared to that found in medium of stimulated cells exposed to no drug, generating percent inhibition.
as §5

Structure (SMILES) | IC50 [2] | ED50 [1] | % Inhibition at 50 mg/kg (peroral) [1] | inhibition at 10 µM [3] | inhibition at 10 µM [4] | inhibition at 5 µM ([3]; Table 3, at 5 μM) | inhibition at 5 µM ([4]; Table 2, at 5 μM)
CC(=O)Oc1ccccc1C(=O)O [Aspirin, reference compound] |  | 145 mg/kg |  |  |  |  | 
CCCCCCCCCCCCCCCCCCNC(CO)CCCC.Cl (centres unmarked) [Example 1, 2-(Octadecylamino)-1-hexanol, hydrochloride] | 12 µM |  | 26% | 26% | 24% |  | 
OC[C@H](Cc1ccc(O)cc1)NCCCCCCCCCCc1ccccc1 [Example 5, (S)-4-hydroxy-α-[(10-phenyldecyl)amino]benzenepropanol, hydrochloride] | 48 µM |  |  |  |  |  | 
CCOC(CNCCCCCCCCCCCOc1ccccc1)OCC.Cl [Example 4, N-(2,2-diethoxyethyl)-11-phenoxyundecanamine, hydrochloride] | 33 µM |  | 34% |  |  |  | 
COc1ccc2c(c1)c(CC(=O)O)c(C)n2C(=O)c1ccc(Cl)cc1 [Indomethacin, reference compound] |  | 3.7 mg/kg |  |  |  |  | 

Now from value to molecule, other results behind:

IC50 [2] | Structure (SMILES) | ED50 [1] | % Inhibition at 50 mg/kg (peroral) [1] | inhibition at 10 µM [3] | inhibition at 10 µM [4] | inhibition at 5 µM ([3]; Table 3, at 5 μM) | inhibition at 5 µM ([4]; Table 2, at 5 μM)
19 µM | CCCCC(CO)NCCCCCCCCCCc1ccccc1.Cl (centres unmarked) [Example 2a, 2-[(10-Phenyldecyl)amino]-1-hexanol, hydrochloride] |  | 39% | 73% | 89% |  | 
17 µM | Cl.OC[C@@H]1CCCN1CCCCCCCCCCCOc1ccccc1 [Example 3a, (S)-1-(11-phenoxyundecyl)-2-pyrrolidinemethanol, hydrochloride] |  | 26% | 37% | 0% |  | 
63 µM | COC(=O)C1CCCN1CCCCCCCCCCCOc1ccccc1 (racemic) [Example 3b, 1-(11-Phenoxyundecyl)-DL-proline methyl ester, hydrochloride] |  |  |  |  |  | 
45 µM | CCCC[C@@H](CO)NCCCCCCCCc1ccccc1.Cl [Example 2b, (S)-2[(8-Phenyloctyl)amino]-1-hexanol, hydrochloride] |  | 25% |  |  | 0% | 52%
> 100 µM | CCCCC(CO)NCCCCCCc1ccccc1.Cl (centres unmarked) [Example 2c, 2-[(6-Phenylhexyl)amino]-1-hexanol, hydrochloride] |  | 34% | 24% | 16% |  | 

Reference: patent US4845292A, “Hydroxy containing amines as phospholipase A2 inhibitors” (American Home Products Corporation, priority 1988, dated 1989)
